Source: patent US8466104B2, “Therapeutically active alpha MSH analogues” (AbbVie Inc., priority 2005, dated 2013)

Tested on: LPS induced cytokine release and pulmonary hypertension in pigs
Assay: Inhibition of LPS induced cytokine release and pulmonary hypertension in pigs in vivo (experimental setup 4)
Set-up: species or system pig
Conditions: 200 μg/kg single iv bolus
Protocol: Inhibition of LPS Induced Cytokine Release and Pulmonary Hypertension in Pigs in vivo.
Female Landrace pigs (˜30 kg) are fasted overnight but allowed free access to water. Then the pigs are premedicated with intramuscular ketamine (10 mg/kg) and midazolam (0.25 mg/kg). Anesthesia is induced with intravenous ketamine (5 mg/kg). The pigs are orally intubated, and anesthesia is maintained with a continuous intravenous infusion of fentanyl (60 μg/kg/h and midazolam (6 mg/kg/h). The animals are ventilated with a volume-controlled ventilator (Servo 900 ventilator; Siemens Elema, Solna, Sweden) with a positive end-expiratory pressure of 5 cm H2O. Tidal volume is kept at 10-15 ml/kg, and the respiratory rate adjusted (20-25 breaths/min) to maintain normocapnia (arterial carbon dioxide tension [PaCO2] in the range of 34-45 mmHg). Ventilation is performed with oxygen in air aimed tot reach an arterial oxygen tension (PaO2) higher than 105 mmHg. One arterial and 2 venous sheaths are placed in the carotid artery and corresponding veins for infusion, blood pressure measurements through fluid filled catheter, blood sampling and for introducing catheters.
Localization of the balloon-tipped catheter is determined by observing the characteristic pressure trace on the monitor as it is advance through the right side of the heart into the pulmonary artery as well as by x-ray. […]

Ac-Lys-Lys-Lys-Lys-Lys-Lys-Ser-Tyr-Ser-Met-Glu-His-Phe-Arg-Trp-Gly-Lys-Pro-Val-NH2 (Ac-KKKKKKSYSMEHFRWGKPV-NH2) [a-MSH analogue #1]
plasma concentrations of TNFa after LPS infusion: marked reduction in plasma concentrations of TNFa | maximal increase in pulmonary artery pressure (PAP) (LPS infusion): 8±2 mmHg
